Reference: PubChem BioAssay (NCI)
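In this assay, cells in 96-well plates receive the compound at five concentrations for 48 hours. Endpoints are linearly interpolated between the surrounding concentrations. TGI is the concentration that stops growth completely.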

Tests used:
Assay in all cases: NCI anticancer screen, dose series, 48 h
[1] = tested on: NCI/ADR-RES ovarian
[2] = tested on: SK-OV-3 ovarian
[3] = tested on: 786-0 renal
[4] = tested on: HOP-62 NSCLC
[5] = tested on: IGROV1 ovarian
[6] = tested on: NCI-H226 lung
[7] = tested on: K-562 leukemia

Measured: TGI

CCN(CC)c1ccc2cc(C(N)=O)c(=Nc3ccc(F)cc3)oc2c1
> 100 µM: [1] | [2] | [3] | [4] | [5] | [6] | [7]

COC12C=CC(CC1)C(C)(C)C2OS(C)(=O)=O (stereo unspecified)
> 100 µM: [1] | [2] | [3] | [4] | [5] | [6] | [7]

O=C(N[C@H]1CCC[C@H]1C(=O)Nc1ccc(C(F)(F)F)cc1)OCc1ccccc1
> 100 µM: [1] | [2] | [3] | [4] | [5] | [6] | [7]
